Experimental data from patent US12655125B2 (SIRONAX LTD., priority 2020, dated 2026).
Like-named read-outs stand apart in the source and are kept apart here.

System: HT-29 cells
Assay: HT29 Cells 0FBS Assay In Vitro (TNF-α/SMAC mimetic/zVAD-FMK induced necroptosis, CellTiter-Glo cell viability)
Format: cell-based
Conditions: Homo sapiens, HT-29 cells, FBS free medium, TNF-α (10 ng/ml), SMAC mimetic (6 uM), zVAD-FMK (10 μM), 20 hours, geometric mean EC50
Summary of the method: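 Viability was measured by ATP luminescence (CellTiter-Glo) after 20 h at 37° C of compound exposure in 10-point, 1:3 dilutions. Necroptosis in FBS-free HT-29 cultures was driven by a TNF-α (10 ng/ml), SMAC mimetic (6 μM) and zVAD-FMK (10 μM) cocktail. EC50 values are geometric means from duplicate curves.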

[1] = read-out: Cell activity (EC50) of Compounds 1-116
[2] = read-out: Cell activity (EC50) of Compounds 117-281

Row | Compound | EC50 [1] | EC50 [2]
1 | Cc1ncsc1-c1cc(OC2CN(C(=O)N3N=CC[C@H]3c3cc(F)cc(F)c3)C2)c(F)cn1 [compound 11, (S)-(5-(3,5-difluorophenyl)-4,5-dihydro-1H-pyrazol-1-yl)(3-((5-fluoro-2-(4-methylthiazol-5-yl)pyridin-4-yl)oxy)azetidin-1-yl)methanone] | 0.1 to 100 nM | 
2 | Cc1cc(C)n(-c2cc(OC3CN(C(=O)N4N=CC[C@H]4c4cc(F)cc(F)c4)C3)c(F)cn2)n1 [compound 221, (S)-(5-(3,5-difluorophenyl)-4,5-dihydro-1H-pyrazol-1-yl)(3-((2-(3,5-dimethyl-1H-pyrazol-1-yl)-5-fluoropyridin-4-yl)oxy)azetidin-1-yl)methanone] |  | 0.1 to 100 nM
3 | Cc1nn(CC2CC2)c(C)c1-c1ncc(F)c(OC2CN(C(=O)N3N=CC[C@H]3c3cc(F)cc(F)c3)C2)n1 [compound 158, (S)-(3-((2-(1-(cyclopropylmethyl)-3,5-dimethyl-1H-pyrazol-4-yl)-5-fluoropyrimidin-4-yl)oxy)azetidin-1-yl)(5-(3,5-difluorophenyl)-4,5-dihydro-1H-pyrazol-1-yl)methanone] |  | 0.1 to 100 nM
4 | CN(C)CC(=O)Nc1cnn(C)c1-c1cc(OC2CN(C(=O)N3N=CC[C@H]3c3cc(F)cc(F)c3)C2)c(F)cn1 [compound 122, (S)—N-(5-(4-((1-(5-(3,5-difluorophenyl)-4,5-dihydro-1H-pyrazole-1-carbonyl)azetidin-3-yl)oxy)-5-fluoropyridin-2-yl)-1-methyl-1H-pyrazol-4-yl)-2-(dimethylamino)acetamide] |  | 0.1 to 100 nM
5 | Cc1c(C#N)nn(C)c1-c1cc(OC2CN(C(=O)N3N=CC[C@H]3c3cc(F)cc(F)c3)C2)c(F)cn1 [compound 150, (S)-5-(4-((1-(5-(3,5-difluorophenyl)-4,5-dihydro-1H-pyrazole-1-carbonyl)azetidin-3-yl)oxy)-5-fluoropyridin-2-yl)-1,4-dimethyl-1H-pyrazole-3-carbonitrile] |  | 0.1 to 100 nM
6 | Cc1nn(-c2cc(OC3CN(C(=O)N4N=CC[C@H]4c4cc(F)cc(F)c4)C3)c(F)cn2)c(C)c1CC(N)=O [compound 225, (S)-2-(1-(4-((1-(5-(3,5-difluorophenyl)-4,5-dihydro-1H-pyrazole-1-carbonyl)azetidin-3-yl)oxy)-5-fluoropyridin-2-yl)-3,5-dimethyl-1H-pyrazol-4-yl)acetamide] |  | 0.1 to 100 nM
7 | Cc1nn(CC(=O)N(C)C)c(C)c1-c1ncc(F)c(OC2CN(C(=O)N3N=CC[C@H]3c3cc(F)cc(F)c3)C2)n1 [compound 100, (S)-2-(4-(4-((1-(5-(3,5-difluorophenyl)-4,5-dihydro-1H-pyrazole-1-carbonyl)azetidin-3-yl)oxy)-5-fluoropyrimidin-2-yl)-3,5-dimethyl-1H-pyrazol-1-yl)-N,N-dimethylacetamide] | 0.1 to 100 nM | 
8 | Cn1nc(C#N)cc1-c1cc(OC2CN(C(=O)N3N=CC[C@H]3c3cc(F)cc(F)c3)C2)c(F)cn1 [compound 173, (S)-5-(4-((1-(5-(3,5-difluorophenyl)-4,5-dihydro-1H-pyrazole-1-carbonyl)azetidin-3-yl)oxy)-5-fluoropyridin-2-yl)-1-methyl-11H-pyrazole-3-carbonitrile] |  | 0.1 to 100 nM
9 | Cc1nn(-c2cc(OC3CN(C(=O)N4N=CC[C@H]4c4cc(F)cc(F)c4)C3)c(F)cn2)c(C)c1S(=O)(=O)NCCO [compound 244, (S)-1-(4-((1-(5-(3,5-difluorophenyl)-4,5-dihydro-1H-pyrazole-1-carbonyl)azetidin-3-yl)oxy)-5-fluoropyridin-2-yl)-N-(2-hydroxyethyl)-3,5-dimethyl-1H-pyrazole-4-sulfonamide] |  | 0.1 to 100 nM
10 | Cc1ncn(C)c1-c1ccc(F)c(OC2CN(C(=O)N3N=CC[C@H]3c3cc(F)cc(F)c3)C2)n1 [compound 44, (S)-(5-(3,5-difluorophenyl)-4,5-dihydro-1H-pyrazol-1-yl)(3-((6-(1,4-dimethyl-1H-imidazol-5-yl)-3-fluoropyridin-2-yl)oxy)azetidin-1-yl)methanone] | 0.1 to 100 nM | 
11 | Cc1nn(-c2cc(OC3CN(C(=O)N4N=CC[C@H]4c4cc(F)cc(F)c4)C3)c(F)cn2)c(C)c1C(=O)NCCN(C)C [compound 256, (S)-1-(4-((1-(5-(3,5-difluorophenyl)-4,5-dihydro-1H-pyrazole-1-carbonyl)azetidin-3-yl)oxy)-5-fluoropyridin-2-yl)-N-(2-(dimethylamino)ethyl)-3,5-dimethyl-1H-pyrazole-4-carboxamide] |  | 0.1 to 100 nM
12 | CNC(=O)Cn1nc(C)c(-c2cc(OC3CN(C(=O)N4N=CC[C@H]4c4cc(F)cc(F)c4)C3)c(F)cn2)c1C [compound 97, (S)-2-(4-(4-((1-(5-(3,5-difluorophenyl)-4,5-dihydro-1H-pyrazole-1-carbonyl)azetidin-3-yl)oxy)-5-fluoropyridin-2-yl)-3,5-dimethyl-1H-pyrazol-1-yl)-N-methylacetamide] | 0.1 to 100 nM | 
13 | Cn1nc(CO)nc1-c1cc(OC2CN(C(=O)N3N=CC[C@H]3c3cc(F)cc(F)c3)C2)c(F)cn1 [compound 202, (S)-(5-(3,5-difluorophenyl)-4,5-dihydro-1H-pyrazol-1-yl)(3-((5-fluoro-2-(3-(hydroxymethyl)-1-methyl-1H-1,2,4-triazol-5-yl)pyridin-4-yl)oxy)azetidin-1-yl)methanone] |  | 0.1 to 100 nM
14 | CNC(=O)c1c(C)c(-c2cc(OC3CN(C(=O)N4N=CC[C@H]4c4cc(F)cc(F)c4)C3)c(F)cn2)nn1C [compound 246, (S)-3-(4-((1-(5-(3,5-difluorophenyl)-4,5-dihydro-1H-pyrazole-1-carbonyl)azetidin-3-yl)oxy)-5-fluoropyridin-2-yl)-N,1,4-trimethyl-1H-pyrazole-5-carboxamide] |  | 0.1 to 100 nM
15 | CC(C)C(=O)Nc1cnn(C)c1-c1cc(OC2CN(C(=O)N3N=CC[C@H]3c3cc(F)cc(F)c3)C2)c(F)cn1 [compound 59, (S)—N-(5-(4-((1-(5-(3,5-difluorophenyl)-4,5-dihydro-1H-pyrazole-1-carbonyl)azetidin-3-yl)oxy)-5-fluoropyridin-2-yl)-1-methyl-1H-pyrazol-4-yl)isobutyramide] | 0.1 to 100 nM | 
16 | Cn1nc(C(N)=O)cc1-c1cc(OC2CN(C(=O)N3N=CC[C@H]3c3cc(F)cc(F)c3)C2)c(F)cn1 [compound 172, (S)-5-(4-((1-(5-(3,5-difluorophenyl)-4,5-dihydro-1H-pyrazole-1-carbonyl)azetidin-3-yl)oxy)-5-fluoropyridin-2-yl)-1-methyl-1H-pyrazole-3-carboxamide] |  | 0.1 to 100 nM
17 | Cc1nn(CCO)c(C)c1-c1ncc(F)c(OC2CN(C(=O)N3N=CC[C@H]3c3cc(F)cc(F)c3)C2)n1 [compound 156, (S)-(5-(3,5-difluorophenyl)-4,5-dihydro-1H-pyrazol-1-yl)(3-((5-fluoro-2-(1-(2-hydroxyethyl)-3,5-dimethyl-1H-pyrazol-4-yl)pyrimidin-4-yl)oxy)azetidin-1-yl)methanone] |  | 0.1 to 100 nM
18 | Cc1cn(C)c(-c2cc(OC3CN(C(=O)N4N=CC[C@H]4c4cc(F)cc(F)c4)C3)c(F)cn2)n1 [compound 40, (S)-(5-(3,5-difluorophenyl)-4,5-dihydro-1H-pyrazol-1-yl)(3-((2-(1,4-dimethyl-1H-imidazol-2-yl)-5-fluoropyridin-4-yl)oxy)azetidin-1-yl)methanone] | 0.1 to 100 nM | 
19 | Cc1[nH]ncc1-c1ncc(F)c(OC2CN(C(=O)N3N=CC[C@H]3c3cc(F)cc(F)c3)C2)n1 [compound 90, (S)-(5-(3,5-difluorophenyl)-4,5-dihydro-1H-pyrazol-1-yl)(3-((5-fluoro-2-(5-methyl-1H-pyrazol-4-yl)pyrimidin-4-yl)oxy)azetidin-1-yl)methanone] | 0.1 to 100 nM | 
20 | Cn1ncc(C#N)c1-c1cc(OC2CN(C(=O)N3N=CC[C@H]3c3cc(F)cc(F)c3)C2)c(F)cn1 [compound 49, (S)-5-(4-((1-(5-(3,5-difluorophenyl)-4,5-dihydro-1H-pyrazole-1-carbonyl)azetidin-3-yl)oxy)-5-fluoropyridin-2-yl)-1-methyl-1H-pyrazole-4-carbonitrile] | 0.1 to 100 nM | 
21 | CN(C)CCNc1cnn(C)c1-c1cc(OC2CN(C(=O)N3N=CC[C@H]3c3cc(F)cc(F)c3)C2)c(F)cn1 [compound 119, (S)-(5-(3,5-difluorophenyl)-4,5-dihydro-1H-pyrazol-1-yl)(3-((2-(4-((2-(dimethylamino)ethyl)amino)-1-methyl-1H-pyrazol-5-yl)-5-fluoropyridin-4-yl)oxy)azetidin-1-yl)methanone] |  | 100 to 1000 nM
22 | Cc1cnn(C)c1-c1ccc(F)c(OC2CN(C(=O)N3N=CC[C@H]3c3cc(F)cc(F)c3)C2)n1 [compound 185, (S)-(5-(3,5-difluorophenyl)-4,5-dihydro-1H-pyrazol-1-yl)(3-((6-(1,4-dimethyl-1H-pyrazol-5-yl)-3-fluoropyridin-2-yl)oxy)azetidin-1-yl)methanone] |  | 0.1 to 100 nM
23 | Cc1nn(-c2cc(OC3CN(C(=O)N4N=CC[C@H]4c4cc(F)cc(F)c4)C3)c(F)cn2)c(C)c1S(N)(=O)=O [compound 220, (S)-1-(4-((1-(5-(3,5-difluorophenyl)-4,5-dihydro-1H-pyrazole-1-carbonyl)azetidin-3-yl)oxy)-5-fluoropyridin-2-yl)-3,5-dimethyl-1H-pyrazole-4-sulfonamide] |  | 0.1 to 100 nM
24 | CCOC(=O)c1[nH]c(C)c(-c2cc(OC3CN(C(=O)N4N=CC[C@H]4c4cc(F)cc(F)c4)C3)c(F)cn2)c1C [compound 153, Ethyl (S)-4-(4-((1-(5-(3,5-difluorophenyl)-4,5-dihydro-1H-pyrazole-1-carbonyl)azetidin-3-yl)oxy)-5-fluoropyridin-2-yl)-3,5-dimethyl-1H-pyrrole-2-carboxylate] |  | 0.1 to 100 nM
25 | Cc1cnn(C)c1-c1ncc(F)c(OC2CN(C(=O)N3N=CC[C@H]3c3cc(F)cc(F)c3)C2)n1 [compound 42, (S)-(5-(3,5-difluorophenyl)-4,5-dihydro-1H-pyrazol-1-yl)(3-((2-(1,4-dimethyl-1H-pyrazol-5-yl)-5-fluoropyrimidin-4-yl)oxy)azetidin-1-yl)methanone] | 0.1 to 100 nM | 
